Structures can show the parent of a compound that is named as a salt. Where two headings read alike, the source gives them in different places.

Data set [1] in a line: Hypotensive activity in spontaneously hypertensive rats, mean arterial blood pressure (Chan and Poorvin). The data set is classed as in vivo, spontaneously hypertensive rats of the Okamoto strain. Particulars: oral gavage, 100 mg/kg or less, two doses 24 hours apart, measured 28 hours after initial dose; average MABP of rats used 160±1.5 mm Hg. The method, then: The novel compounds of the present invention also are active antihypertensive agents and were tested for hypotensive activity by the method of P. S. Chan and D. Poorvin, Clinical and Experimental Hypertension, 1(6), 817-830 (1979). Male, 16 week old, spontaneously hypertensive rats of the Okamoto strain, from Taconic Farms, Germantown, N.Y., having an average mean arterial blood pressure of 160±1.5 mm of mercury are used in the test. One to three rats are used per test compound. A rat is dosed by gavage with a test compound, suspended in 2% pre-boiled starch at a concentration of 50 mg/ml, at a dose of 100 mg/kg of body weight or less, with 0.9% sodium chloride loading at a dose of 25 ml/kg of body weight. A second identical dose of the test compound, without sodium chloride loading, is given 24 hours later. At 28 hours after the initial dose the mean arterial blood pressure is measured by the method of Chan and Poorvin, vide supra. The procedure is repeated in a second and third rat when necessary.

The next data set has as its target T1, thromboxane synthetase (Rattus norvegicus, UniProt P49430).
T1 construct: The platelets were isolated by centrifuging the PRP for 10 minutes; endogenous in cells; host or cells: washed platelets from arterial blood of Okamoto-Aoki spontaneously hypertensive rats (animals from Taconic Farms)
T1 sequence (P49430 1-533): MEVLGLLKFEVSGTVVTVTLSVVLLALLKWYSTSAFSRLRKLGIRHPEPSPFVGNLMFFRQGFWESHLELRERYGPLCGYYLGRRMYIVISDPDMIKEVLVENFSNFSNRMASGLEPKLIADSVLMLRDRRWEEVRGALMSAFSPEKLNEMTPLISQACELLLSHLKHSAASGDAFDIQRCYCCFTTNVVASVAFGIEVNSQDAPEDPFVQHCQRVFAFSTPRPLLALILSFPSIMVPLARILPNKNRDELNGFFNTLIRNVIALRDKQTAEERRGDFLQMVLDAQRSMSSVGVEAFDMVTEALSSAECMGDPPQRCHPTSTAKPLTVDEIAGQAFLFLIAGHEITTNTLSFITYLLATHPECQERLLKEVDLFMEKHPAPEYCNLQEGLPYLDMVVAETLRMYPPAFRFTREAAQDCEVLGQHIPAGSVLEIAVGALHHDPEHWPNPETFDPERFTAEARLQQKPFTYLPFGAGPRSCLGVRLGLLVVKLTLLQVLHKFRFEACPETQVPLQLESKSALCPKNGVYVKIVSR
Put plainly: Inhibition of thromboxane (TXA2) formation in SHR platelets, TXB2 measured by radioimmunoassay. The data set is classed as cell-based, Okamoto-Aoki spontaneously hypertensive rats (SHR). Particulars: read-out: % Inhibition (of TXB2 formation). The method, then: The inhibition of thromboxane (TXA2) formation was studied by determining the concentration of thromboxane B2 (TXB2), the stable hydrolysis product of TXA2. […] The blood was diluted with 3 ml cold saline and centrifuged at room temperature for 15 minutes at 460×g. The platelet rich plasma (PRP) was separated. The platelets were isolated by centrifuging the PRP for 10 minutes at 1060×g and were washed in 4 ml cold oxygenated Krebs phosphate buffer, pH 7.4. The chilled platelets recovered from centrifuging at 800×g for 10 minutes were resuspended in oxygenated Krebs phosphate buffer and diluted to contain 4.5-6.0×10^4 platelets/μl. Assay samples, prepared on ice, contained 200 μl platelet suspension, 50 μl saline, and 50 μl vehicle or drug under study. The samples were incubated for 10 minutes at 37° C. in a metabolic shaker. The reaction was terminated by immersing the tubes in an ice bath and adding 50 μl of 0.5M citric acid. The samples were centrifuged for 10 minutes in a refrigerated centrifuge and the supernatants thus obtained were decanted and stored at -20° C.

For data set [2] the following is noted: guinea pigs; literature; cited from earlier work.
The conditions of data set [3]: rabbits; literature; cited from earlier work.
For data set [4] the following is noted: canines; J. Cardiovascular Pharmacology, 4, 129 (1982); cited from earlier work.
The mark [5] stands for this setting: dose 10^-4 M, SHR washed platelets, 10 minutes at 37° C.

Consider `O=S(=O)(NCCCCCn1ccnc1)c1ccc(Cl)cc1` [4-Chloro-N-[5-(1H-imidazol-1-yl)pentyl]benzenesulfonamide], for which the “MABP in mm Hg” value in data set [1] amounted to 119 mm Hg. For the compound `O=S(=O)(NCCCCn1ccnc1)c1ccc(Br)cc1` [4-Bromo-N-[4-(1H-imidazol-1-yl)butyl]benzenesulfonamide], on thromboxane synthetase (setting [5]), the inhibition at 100 µM amounted to 91%.

In the case of `CC(=O)Nc1ccc(S(=O)(=O)NCCCCn2ccnc2)cc1` [N-[4-[[[4-(1H-imidazol-1-yl)butyl]amino]sulfonyl]phenyl]acetamide], the inhibition at 100 µM on thromboxane synthetase (setting [5]) turned out to be 100%. For the same compound, the “MABP in mm Hg” value in data set [1] turned out to be 116 mm Hg. With `CCCCCC(O)/C=C/C1OC2CC(O2)C1C/C=C\CCCC(=O)O` (centres unmarked) [TXA2], the “effect of injection into coronary arteries (in words)” value in data set [2] was “causes myocardial ischemia and subendocardial necrosis”; in data set [3], “causes myocardial ischemia and subendocardial necrosis”.

For the compound `CCCCC[C@H](O)/C=C/[C@@H]1[C@H]2C/C(=C/CCCC(=O)O)O[C@H]2C[C@H]1O` [PGI2], the “effect on ischemic myocardium (in words)” value in data set [4] is listed as “beneficial effects”.

As to `O=S(=O)(NCCc1cccnc1)c1ccc(Cl)cc1` [4-Chloro-N-[2-(3-pyridyl)ethyl]benzenesulfonamide], the inhibition at 100 µM on thromboxane synthetase (setting [5]) is 90%. The “MABP in mm Hg” value in data set [1] is on record as 109 mm Hg. For the compound `O=S(=O)(NCCCCCn1ccnc1)c1ccc(Cl)cc1` [4-Chloro-N-[5-(1H-imidazol-1-yl)pentyl]benzenesulfonamide hydrochloride], the inhibition at 100 µM at thromboxane synthetase (setting [5]) came out at 97%.

For `O=S(=O)(NCCCn1ccnc1)c1ccc(Br)cc1` [4-Bromo-N-[3-(1H-imidazol-1-yl)propyl]benzenesulfonamide], the inhibition at 100 µM at thromboxane synthetase is 100%. Moreover, the “MABP in mm Hg” value in data set [1] was 126 mm Hg. `O=S(=O)(NCCCCn1ccnc1)c1ccccc1` [N-[4-(1H-Imidazol-1-yl)butyl]benzenesulfonamide]: the inhibition at 100 µM on thromboxane synthetase (setting [5]) worked out at 93%. On the same count and under the same terms, in the case of `O=S(=O)(NCCCCn1ccnc1)c1ccc(Cl)cc1` [4-Chloro-N-[4-(1H-imidazol-1-yl)butyl]benzenesulfonamide] it was 94%. `O=S(=O)(NCCCn1ccnc1)c1ccc(Cl)cc1` [4-Chloro-N-[3-(1H-imidazol-1-yl)propyl]benzenesulfonamide]: the inhibition at 100 µM on thromboxane synthetase (setting [5]) was determined as 99%. Moreover, the “MABP in mm Hg” value in data set [1] was 120 mm Hg. Consider `COc1ccc(S(=O)(=O)NCCCn2ccnc2)cc1` [N-[3-(1H-Imidazol-1-yl)propyl]-4-methoxybenzenesulfonamide], for which the inhibition at 100 µM on thromboxane synthetase (setting [5]) amounted to 100%. Still for that read-out and setting: in the case of `O=S(=O)(NCCCn1cncn1)c1ccccc1` [N-[3-(1H-1,2,4-Triazol-1-yl)propyl]benzenesulfonamide] it was 67%. For the compound `O=S(=O)(NCCn1ccnc1)c1ccc(Br)cc1` [4-Bromo-N-[2-(1H-imidazol-1-yl)ethyl]benzenesulfonamide], in data set [1], the “MABP in mm Hg” value came to 125 mm Hg. In the case of `O=S(=O)(NCCCCCCCCn1ccnc1)c1ccc(Cl)cc1` [4-Chloro-N-[8-(1H-imidazol-1-yl)octyl]benzenesulfonamide], the inhibition at 100 µM at thromboxane synthetase (setting [5]) amounted to 93%. Further, the “MABP in mm Hg” value in data set [1] came to 132 mm Hg. On the same counts, the results for `COc1ccc(S(=O)(=O)NCCCCn2ccnc2)cc1` [N-[4-(1H-imidazol-1-yl)butyl]-4-methoxybenzenesulfonamide] are 97% and 134 mm Hg.

With `O=S(=O)(NCCCn1cncn1)c1ccc(Cl)cc1` [4-Chloro-N-[3-(1H-1,2,4-triazol-1-yl)propyl]benzenesulfonamide], the “MABP in mm Hg” value in data set [1] was 127 mm Hg.

As for `CC(=O)Nc1ccc(S(=O)(=O)NCCCn2ccnc2)cc1` [N-[4-[[[3-(1H-Imidazol-1-yl)propyl]amino]sulfonyl]phenyl]acetamide], the inhibition at 100 µM on thromboxane synthetase (setting [5]) was found to be 73%. Also, in data set [1], the “MABP in mm Hg” value is listed as 131 mm Hg.

Usually inhibition stands for how much of the control response was suppressed.

(Values after patent publication US4610981A, “N-[(1H-imidazol-1-yl) and (1H-1,2,4-triazol-1-yl)-alkyl]benzenesulfonamides and thromboxane synthetase/antihypertensive compositions” (priority 1985, dated 1986).)
